# Assay: Safety and tolerability: adverse events, dose-limiting toxicities, MTD, RP2D (Phase 1A/1B)
# Format: in vivo
# Method: This was an open-label, Phase 1, dose-escalation/dose-expansion study, conducted across six study centres in Australia. The dose-escalation phase evaluated twice-daily (BID) and once-daily (QD) dosing, and the dose-expansion phase evaluated the BID RP2D from the dose-escalation phase and food effects (Fig. 1). The food-effects cohort comprised two sequences: fast followed by fed (sequence 1) and fed followed by fast (sequence 2). […] The decision to proceed to the next dose cohort was determined by the Safety Monitoring Committee and followed a modified 3 + 3 escalation scheme. […] When ≥2 DLTs occurred in the first 23 days of a dose level, the next lower dose level was declared the MTD. Safety was monitored and DLTs were assessed in all dose cohorts. […] The food-effects cohort investigated the effects of food on the PK of pamiparib in patients with advanced solid tumours.
# The QD dosing regimen was added as an amendment to the protocol with the purpose of exploring the feasibility of a more convenient regimen.
# Safety and tolerability were assessed throughout the study by monitoring adverse events (AEs), serious AEs, clinical laboratory measurements and physical examinations. Adverse events were categorised according to their severity (National Cancer Institute Common Terminology Criteria for Adverse Events v4.03) and relationship to the study treatment.
# [1] = 101 total patients, dose escalation and expansion
# [2] = BID dose-escalation (2.5–120 mg), 45 patients
# [3] = BID dose-escalation, 45 patients
# [4] = Dose Escalation and Dose Expansion (N=101)
# [5] = Total BID dose escalation (N = 45)
# [6] = Total QD dose escalation (N=19)
smiles,measurement,setting,value
C[C@]12CCCN1CC1=NNC(=O)c3cc(F)cc4[nH]c2c1c34 [pamiparib],Serious AE: nausea,101 patients,4.0%
same,Serious AE: pleural effusion,101 patients,3.0%
same,Serious AE: pneumonia,101 patients,3.0%
same,Serious AE: small intestinal obstruction,101 patients,5.0%
same,Serious AEs,101 patients (44 patients),43.6%
same,Anaemia leading to dose reduction/interruption,101 total patients,21.8%
same,Haematologic AEs leading to dose reduction/interruption,101 total patients,23.8%
same,Neutropenia leading to dose reduction/interruption,101 total patients,5.9%
same,Thrombocytopenia leading to dose reduction/interruption,101 total patients,4.0%
same,Adverse events leading to treatment discontinuation,101 total patients (six patients),5.9%
same,"Anaemia, Grades ≥3",[1],24.8%
same,"Anaemia, all Grades",[1],35.6%
same,"Diarrhoea, Grades ≥3",[1],2.0%
same,"Diarrhoea, all Grades",[1],32.7%
same,"Fatigue, Grades ≥3",[1],3.0%
same,"Fatigue, all Grades",[1],48.5%
same,"Increased alanine aminotransferase, Grades ≥3",[1],5.0%
same,"Increased alanine aminotransferase, all Grades",[1],11.9%
same,"Nausea, Grades ≥3",[1],4.0%
same,"Nausea, all Grades",[1],69.3%
same,"Neutropenia, Grades ≥3",[1],5.9%
same,"Neutropenia, all Grades",[1],9.9%
same,"Vomiting, Grades ≥3",[1],1.0%
same,"Vomiting, all Grades",[1],31.7%
same,Treatment-related grade ≥3 AEs,120-mg BID dosage cohort,60.0%
same,Treatment-related grade ≥3 AEs,160-mg QD dosage cohort,63.6%
same,Patients with a grade ≥3 AE,"BID dosage cohort, dose escalation (N=45)",62.2%
same,"Anaemia, AE",[2],33.3%
same,"Diarrhoea, AE",[2],28.9%
same,"Fatigue, AE",[2],33.3%
same,"Nausea, AE",[2],64.4%
same,"Vomiting, AE",[2],35.6%
same,Treatment-related AEs leading to dose interruptions,[3],31.1%
same,Treatment-related AEs leading to dose reductions,[3],6.7%
same,Maximum tolerated dose (MTD),BID dosing,80 mg
same,Recommended Phase 2 dose (RP2D),BID dosing,60 mg
same,"Abdominal pain, All Grades",[4],17 (16.8) n (%)
same,"Abdominal pain, Grade ≥3",[4],1 (1.0) n (%)
same,"Anemia, All Grades",[4],36 (35.6) n (%)
same,"Anemia, Grade ≥3",[4],25 (24.8) n (%)
same,"Constipation, All Grades",[4],21 (20.8) n (%)
same,"Constipation, Grade ≥3",[4],0 n (%)
same,"Decreased appetite, All Grades",[4],23 (22.8) n (%)
same,"Decreased appetite, Grade ≥3",[4],0 n (%)
same,"Diarrhea, All Grades",[4],33 (32.7) n (%)
same,"Diarrhea, Grade ≥3",[4],2 (2.0) n (%)
same,"Fatigue, All Grades",[4],49 (48.5) n (%)
same,"Fatigue, Grade ≥3",[4],3 (3.0) n (%)
same,"Headache, All Grades",[4],12 (11.9) n (%)
same,"Headache, Grade ≥3",[4],0 n (%)
same,"Increased alanine aminotransferase, All Grades",[4],12 (11.9) n (%)
same,"Increased alanine aminotransferase, Grade ≥3",[4],5 (5.0) n (%)
same,"Increased aspartate aminotransferase, All Grades",[4],10 (9.9) n (%)
same,"Increased aspartate aminotransferase, Grade ≥3",[4],3 (3.0) n (%)
same,"Nausea, All Grades",[4],70 (69.3) n (%)
same,"Nausea, Grade ≥3",[4],4 (4.0) n (%)
same,"Neutropenia, All Grades",[4],10 (9.9) n (%)
same,"Neutropenia, Grade ≥3",[4],6 (5.9) n (%)
same,"Upper respiratory tract infection, All Grades",[4],12 (11.9) n (%)
same,"Upper respiratory tract infection, Grade ≥3",[4],0 n (%)
same,"Urinary tract infection, All Grades",[4],14 (13.9) n (%)
same,"Urinary tract infection, Grade ≥3",[4],1 (1.0) n (%)
same,"Vomiting, All Grades",[4],32 (31.7) n (%)
same,"Vomiting, Grade ≥3",[4],1 (1.0) n (%)
same,Patients with a grade ≥3 AE,"QD dosage cohort, dose escalation (N=19)",73.7%
same,Treatment-related AEs leading to dose interruptions,QD dosage group (N=19),57.9%
same,Treatment-related AEs leading to dose reductions,QD dosage group (N=19),5.3%
same,"Diarrhea, AE",QD dosage group overall (N=19),47.4%
same,"Fatigue, AE",QD dosage group overall (N=19),68.4%
same,"Nausea, AE",QD dosage group overall (N=19),73.7%
same,Maximum tolerated dose (MTD),QD dosing,160 mg
same,Recommended Phase 2 dose (RP2D),QD dosing,120 mg
same,"Abdominal pain, AE of any grade",[5],9 (20.0) n (%)
same,"Anaemia, AE of any grade",[5],15 (33.3) n (%)
same,"Ascites, AE of any grade",[5],5 (11.1) n (%)
same,"Back pain, AE of any grade",[5],4 (8.9) n (%)
same,"Constipation, AE of any grade",[5],8 (17.8) n (%)
same,"Cough, AE of any grade",[5],4 (8.9) n (%)
same,"Decreased appetite, AE of any grade",[5],5 (11.1) n (%)
same,"Diarrhoea, AE of any grade",[5],13 (28.9) n (%)
same,Dose-limiting toxicity,[5],4 (8.9) n (%)
same,"Dyspnoea, AE of any grade",[5],3 (6.7) n (%)
same,"Fatigue, AE of any grade",[5],15 (33.3) n (%)
same,"Headache, AE of any grade",[5],4 (8.9) n (%)
same,"Hypoalbuminemia, AE of any grade",[5],3 (6.7) n (%)
same,"Hypomagnesemia, AE of any grade",[5],4 (8.9) n (%)
same,"Hypophosphatemia, AE of any grade",[5],3 (6.7) n (%)
same,"Increased AST, AE of any grade",[5],3 (6.7) n (%)
same,"Muscle spasms, AE of any grade",[5],4 (8.9) n (%)
same,"Nausea, AE of any grade",[5],29 (64.4) n (%)
same,"Neutropenia, AE of any grade",[5],6 (13.3) n (%)
same,"Non-cardiac chest pain, AE of any grade",[5],3 (6.7) n (%)
same,"Pain in extremity, AE of any grade",[5],3 (6.7) n (%)
same,"Peripheral sensory neuropathy, AE of any grade",[5],3 (6.7) n (%)
same,"Pleural effusion, AE of any grade",[5],4 (8.9) n (%)
same,"Pyrexia, AE of any grade",[5],4 (8.9) n (%)
same,Treatment-emergent AE,[5],45 (100.0) n (%)
same,Treatment-emergent AE: Grade 3 or higher,[5],28 (62.2) n (%)
same,Treatment-emergent AE: Leading to death,[5],4 (8.9) n (%)
same,Treatment-emergent AE: Leading to dose interruption,[5],27 (60.0) n (%)
same,Treatment-emergent AE: Leading to dose modification,[5],27 (60.0) n (%)
same,Treatment-emergent AE: Leading to dose reduction,[5],3 (6.7) n (%)
same,Treatment-emergent AE: Leading to treatment discontinuation,[5],3 (6.7) n (%)
same,Treatment-emergent AE: Serious,[5],25 (55.6) n (%)
same,Treatment-related AE,[5],35 (77.8) n (%)
same,Treatment-related AE: Grade 3 or higher,[5],10 (22.2) n (%)
same,Treatment-related AE: Leading to death,[5],0 (0.0) n (%)
same,Treatment-related AE: Leading to dose interruption,[5],14 (31.1) n (%)
same,Treatment-related AE: Leading to dose modification,[5],14 (31.1) n (%)
same,Treatment-related AE: Leading to dose reduction,[5],3 (6.7) n (%)
same,Treatment-related AE: Leading to treatment discontinuation,[5],2 (4.4) n (%)
same,Treatment-related AE: Serious,[5],3 (6.7) n (%)
same,"Upper respiratory tract infection, AE of any grade",[5],8 (17.8) n (%)
same,"Urinary tract infection, AE of any grade",[5],8 (17.8) n (%)
same,"Vomiting, AE of any grade",[5],16 (35.6) n (%)
same,Dose-limiting toxicity,[6],1 (5.3) n (%)
same,Treatment-emergent AE,[6],19 (100.0) n (%)
same,Treatment-emergent AE: Grade 3 or higher,[6],14 (73.7) n (%)
same,Treatment-emergent AE: Leading to death,[6],0 (0.0) n (%)
same,Treatment-emergent AE: Leading to dose interruption,[6],13 (68.4) n (%)
same,Treatment-emergent AE: Leading to dose modification,[6],13 (68.4) n (%)
same,Treatment-emergent AE: Leading to dose reduction,[6],1 (5.3) n (%)
same,Treatment-emergent AE: Leading to treatment discontinuation,[6],2 (10.5) n (%)
same,Treatment-emergent AE: Serious,[6],6 (31.6) n (%)
same,Treatment-related AE,[6],17 (89.5) n (%)
same,Treatment-related AE: Grade 3 or higher,[6],10 (52.6) n (%)
same,Treatment-related AE: Leading to death,[6],0 (0.0) n (%)
same,Treatment-related AE: Leading to dose interruption,[6],11 (57.9) n (%)
same,Treatment-related AE: Leading to dose modification,[6],11 (57.9) n (%)
same,Treatment-related AE: Leading to dose reduction,[6],1 (5.3) n (%)
same,Treatment-related AE: Leading to treatment discontinuation,[6],2 (10.5) n (%)
same,Treatment-related AE: Serious,[6],1 (5.3) n (%)

# Source: publication PMC8854719, “Phase 1A/1B dose-escalation and -expansion study to evaluate the safety, pharmacokinetics, food effects and antitumor activity of pamiparib in advanced solid tumours” (British Journal of Cancer, 2021)
